Measured values taken from patent US20090192176A1, “1H-PYRAZOLO[3,4-D]PYRIMIDINE, PURINE, 7H-PURIN-8(9H)-ONE, 3H-[1,2,3]TRIAZOLO[4,5-D]PYRIMIDINE, AND THIENO[3,2-D]PYRIMIDINE COMPOUNDS, THEIR USE AS mTOR KINASE AND PI3 KINASE INHIBITORS, AND THEIR SYNTHESES” (Wyeth, priority 2008, published 2009).

Assays:
PI3 Kinase γ = PI3 Kinase γ (Homo sapiens, UniProt P48736); assay: Fluorescence polarization assay for PI3K; assay type: biochemical
Procedure: (§1) Fluorescence Polarization Assay for PI3K
(§2) This assay is used to determine the IC50 of compounds of the present invention as it identifies inhibitors of PI3 kinase by measuring inhibition.
(§3) Reaction Buffer: 20 mM HEPES, pH 7.5, 2 mM MgCl2, 0.05% CHAPS; and 0.01% BME (added fresh) Stop/Detection Buffer: 100 mM HEPES, pH 7.5, 4 mM EDTA, 0.05% CHAPS; ATP 20 mM in water; PIP2 (diC8, cat# P-4508) 1 mM in water (MW=856.5); GST-GRP 1.75 mg/mL or 1.4 mg/mL in 10% glycerol; Red detector (TAMRA) 2.5 μM; Plate: Nunc 384 well black polypropylene fluorescence plate.
(§4) The assay is run by placing 5 μL of diluted enzyme per well, then 5 μL of diluted compound (or 9.5 μL enzyme then 0.5 μL compound in DMSO) is added and mixed. Then, 10 μL substrate is added to start the reaction. The samples are incubated 30-60 minutes, then the reaction is stopped by adding 20 μL stop/detector mix. PI3K is diluted with reaction buffer (e.g., 5 μL or 7.5 μL PI3K into 620 μL reaction buffer), and 5 μL of diluted enzyme is used per well. 5 μL reaction buffer or drug diluted in buffer (e.g., 4 μL/100 so final DMSO is 1% in reaction) is added to each. Pipetting up and down mixes the samples. Alternatively, the enzyme can be diluted to 1215 μL. In this case 9.8 μL is added per well and 0.2 μL compound is added in DMSO. To prepare 1 mL of substrate solution, 955 μL reaction buffer, 40 μL PIP2, and 2.5 μL ATP are mixed. 10 μL of substrate is added to each well to start the reaction.
(§5) Stop/detector mix is prepared by mixing 4 μL Red detector and 1.6 μL or 2.0 μL GST-GRP with 1 mL Stop buffer, which results in 10 nM probe and 70 nM GST-GRP). 20 μL of the stop/detector mix is added to each well to stop the reaction. The plates are read after 30-90 minutes keeping the red probe solutions dark. For the zero time point, stop/detector mix is added to the enzyme just before adding substrate. For an extra control, stop/detector mix is added to buffer (no enzyme) and substrate or to just buffer (no substrate). […] The recommended reaction has 0.06 μL per 20 μL (0.015 μg/20 μL) or 0.01125 μg/15 μL or 0.75 μg/mL. Plates are read on machines with filters for Tamra. The units are mP with no enzyme controls reading app 190-220 mP units. Fully active enzyme reduces fluorescence polarization down to 70-100 mP after 30 minutes. An active compound raises the mP values halfway to control or to 120-150 mP units.

PI3 Kinase α = PI3 Kinase α (Homo sapiens, UniProt P42336); assay: Fluorescence polarization assay for PI3K; assay type: biochemical
Sequence of PI3 Kinase α (P42336 whole entry): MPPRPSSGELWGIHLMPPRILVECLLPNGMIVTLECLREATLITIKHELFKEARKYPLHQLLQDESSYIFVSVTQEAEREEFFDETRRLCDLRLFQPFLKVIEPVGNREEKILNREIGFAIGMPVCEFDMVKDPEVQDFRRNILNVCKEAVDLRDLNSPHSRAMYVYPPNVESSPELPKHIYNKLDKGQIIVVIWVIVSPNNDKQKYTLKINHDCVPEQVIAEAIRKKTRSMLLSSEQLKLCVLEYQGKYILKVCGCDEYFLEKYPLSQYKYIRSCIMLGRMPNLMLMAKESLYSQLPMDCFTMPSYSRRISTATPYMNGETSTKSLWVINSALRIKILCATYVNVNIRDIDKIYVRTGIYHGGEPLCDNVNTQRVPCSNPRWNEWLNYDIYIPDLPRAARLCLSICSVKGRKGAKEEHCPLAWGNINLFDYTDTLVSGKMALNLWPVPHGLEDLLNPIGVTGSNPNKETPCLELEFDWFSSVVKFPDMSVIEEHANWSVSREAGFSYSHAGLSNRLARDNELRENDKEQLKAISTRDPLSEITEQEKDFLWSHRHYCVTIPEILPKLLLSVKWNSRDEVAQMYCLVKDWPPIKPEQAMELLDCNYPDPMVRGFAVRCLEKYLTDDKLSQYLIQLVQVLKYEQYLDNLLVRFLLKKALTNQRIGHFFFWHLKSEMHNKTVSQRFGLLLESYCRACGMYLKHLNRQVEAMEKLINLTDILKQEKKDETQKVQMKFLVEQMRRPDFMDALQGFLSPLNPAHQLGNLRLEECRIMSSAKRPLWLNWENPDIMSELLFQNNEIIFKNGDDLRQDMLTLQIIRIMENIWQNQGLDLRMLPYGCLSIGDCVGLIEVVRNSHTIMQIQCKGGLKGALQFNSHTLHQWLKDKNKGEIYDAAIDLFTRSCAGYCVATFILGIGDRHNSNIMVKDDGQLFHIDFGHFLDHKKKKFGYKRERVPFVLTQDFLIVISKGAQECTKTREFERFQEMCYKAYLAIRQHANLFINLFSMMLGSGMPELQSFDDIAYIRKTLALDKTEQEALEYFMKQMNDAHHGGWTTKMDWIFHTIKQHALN
Sequence of PI3 Kinase α (P27986 whole entry partner): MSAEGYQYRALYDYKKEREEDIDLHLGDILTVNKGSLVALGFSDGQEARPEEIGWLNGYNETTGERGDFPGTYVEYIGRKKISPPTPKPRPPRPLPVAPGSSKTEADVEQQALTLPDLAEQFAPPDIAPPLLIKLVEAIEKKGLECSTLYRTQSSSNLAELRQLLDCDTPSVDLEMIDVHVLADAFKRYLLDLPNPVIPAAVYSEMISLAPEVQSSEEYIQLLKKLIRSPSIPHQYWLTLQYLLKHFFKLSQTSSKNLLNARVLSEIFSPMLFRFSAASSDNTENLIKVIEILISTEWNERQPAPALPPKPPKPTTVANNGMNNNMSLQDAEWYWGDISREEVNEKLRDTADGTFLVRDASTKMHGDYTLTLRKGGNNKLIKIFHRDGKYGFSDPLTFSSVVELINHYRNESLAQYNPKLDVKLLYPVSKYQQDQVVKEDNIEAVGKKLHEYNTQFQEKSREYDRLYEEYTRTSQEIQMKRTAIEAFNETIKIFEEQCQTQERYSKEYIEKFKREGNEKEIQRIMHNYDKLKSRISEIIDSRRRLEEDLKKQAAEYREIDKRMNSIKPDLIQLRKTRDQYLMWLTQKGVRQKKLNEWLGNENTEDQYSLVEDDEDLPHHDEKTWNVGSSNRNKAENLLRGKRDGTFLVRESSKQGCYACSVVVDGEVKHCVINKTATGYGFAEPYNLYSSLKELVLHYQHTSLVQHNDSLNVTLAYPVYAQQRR
Procedure: as §1, §2, §3, §4, §5

Human mTOR = biological target: T1, Human mTOR (Homo sapiens, UniProt P42345); assay: mTOR kinase assay (DELFIA format, purified enzyme); assay type: biochemical; details: His6-S6K substrate, read-out: TOR Kinase IC50
T1 construct: FLAG
Procedure: mTOR Kinase Assay Methods
Human mTOR assays (See Toral-Barza, et al. Biochem Biophys. Res. Commun. 2005 Jun. 24; 332(1):304-10) with purified enzyme are performed in 96-well plates by DELFIA format as follows. Enzymes are first diluted in kinase assay buffer (10 mM HEPES (pH 7.4), 50 mM NaCl, 50 mM β-glycerophosphate, 10 mM MnCl2, 0.5 mM DTT, 0.25 mM microcystin LR, and […]). To each well, 12 μL of the diluted enzyme is mixed briefly with 0.5 μL test inhibitor or control vehicle dimethylsulfoxide (DMSO). The kinase reaction is initiated by adding 12.5 μL kinase assay buffer containing ATP and His6-S6K to give a final reaction volume of 25 μL containing 800 ng/mL FLAG-TOR, […] and […]. The reaction plate is incubated for 2 hours (linear at 1-6 hours) at room temperature with gentle shaking and then terminated by adding 25 μL Stop buffer (20 mM HEPES (pH 7.4), 20 mM EDTA, 20 mM EGTA). The DELFIA detection of the phosphorylated (Thr-389) His6-S6K is performed at room temperature using a monoclonal anti-P(T389)-p70S6K antibody (1A5, Cell Signaling) labeled with Europium-N1-ITC (Eu) (10.4 Eu per antibody, PerkinElmer). The DELFIA Assay buffer and Enhancement solution can be purchased from PerkinElmer. 45 μL of the terminated kinase reaction mixture is transferred to a MaxiSorp plate (Nunc) containing 55 μL PBS. The His6-S6K is allowed to attach for 2 hours after which the wells are aspirated and washed once with PBS. 100 μL of DELFIA Assay buffer with 40 ng/mL Eu-P(T389)-S6K antibody is added. The antibody binding is continued for 1 hour with gentle agitation. The wells are then aspirated and washed 4 times with PBS containing 0.05% Tween-20 (PBST). 100 μL of DELFIA Enhancement solution is added to each well and the plates are read in a PerkinElmer Victor model plate reader. Data obtained is used to calculate enzymatic activity and enzyme inhibition by potential inhibitors.

MDA468 = assay: In vitro cell culture growth assay (MTS); assay type: cell-based; details: Homo sapiens, 72 h, breast line MDA468, three days after drug treatment
Procedure: In Vitro Cell Culture Growth Assay Methods:
Human tumor cell lines used include prostate lines LNCap and PC3MM2, breast lines MDA468, MCF7, renal line HTB44 (A498), colon line HCT116, and ovarian line OVCAR3. Cells were plated in 96-well culture plates. One day following plating, the inhibitors were added to cells. Three days after drug treatment, viable cell densities were determined by metabolic conversion (by viable cells) of the dye MTS, a well-established cell proliferation assay. The assays were performed using an assay kit purchased from Promega Corp. (Madison, Wis.) following the protocol supplied with the kit. The MTS assay results were read in a 96-well plate reader by measuring absorbance at 490 nm. The effect of each treatment was calculated as percent of control growth relative to the vehicle-treated cells grown in the same culture plate. The drug concentration that conferred 50% inhibition of growth was determined as IC50 (μg/ml).

LNCap = assay: In vitro cell culture growth assay (MTS); assay type: cell-based; details: Homo sapiens, 72 h, prostate line LNCap, three days after drug treatment
[1] = test system: acute lymphoblastic leukemia; details: NOS/SCID xenograft mouse model of acute lymphoblastic leukemia; cited from earlier work

Sequence of PI3 Kinase γ (P48736 whole entry): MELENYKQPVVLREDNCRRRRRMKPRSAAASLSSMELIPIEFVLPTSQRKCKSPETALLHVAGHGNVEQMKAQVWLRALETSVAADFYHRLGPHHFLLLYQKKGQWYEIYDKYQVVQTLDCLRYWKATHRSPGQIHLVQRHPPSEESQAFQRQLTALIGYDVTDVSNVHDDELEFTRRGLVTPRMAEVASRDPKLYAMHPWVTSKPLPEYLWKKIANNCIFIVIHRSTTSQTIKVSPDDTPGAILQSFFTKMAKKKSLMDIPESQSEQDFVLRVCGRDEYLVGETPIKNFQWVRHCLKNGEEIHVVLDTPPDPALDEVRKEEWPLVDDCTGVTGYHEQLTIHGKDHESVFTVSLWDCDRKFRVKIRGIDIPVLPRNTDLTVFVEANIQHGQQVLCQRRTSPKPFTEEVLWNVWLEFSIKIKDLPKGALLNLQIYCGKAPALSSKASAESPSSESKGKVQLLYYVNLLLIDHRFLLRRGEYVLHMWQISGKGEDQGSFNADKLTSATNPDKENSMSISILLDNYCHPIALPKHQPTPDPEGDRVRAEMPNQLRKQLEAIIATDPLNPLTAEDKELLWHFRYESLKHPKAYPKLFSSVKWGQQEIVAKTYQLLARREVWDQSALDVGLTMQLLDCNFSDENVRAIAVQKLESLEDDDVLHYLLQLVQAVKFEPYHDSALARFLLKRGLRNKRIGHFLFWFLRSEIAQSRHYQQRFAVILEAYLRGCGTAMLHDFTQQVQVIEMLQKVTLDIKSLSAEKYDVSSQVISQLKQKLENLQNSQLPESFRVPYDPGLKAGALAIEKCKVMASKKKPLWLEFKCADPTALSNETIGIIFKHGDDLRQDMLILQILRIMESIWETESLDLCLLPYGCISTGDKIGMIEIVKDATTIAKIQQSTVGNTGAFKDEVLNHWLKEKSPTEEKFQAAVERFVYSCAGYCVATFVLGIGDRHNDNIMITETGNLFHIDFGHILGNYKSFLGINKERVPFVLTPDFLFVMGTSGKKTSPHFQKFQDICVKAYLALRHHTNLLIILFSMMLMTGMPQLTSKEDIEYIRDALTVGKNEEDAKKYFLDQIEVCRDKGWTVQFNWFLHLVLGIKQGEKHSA

Row | Structure (SMILES) | IC50 (PI3 Kinase γ) | IC50 (PI3 Kinase α) | IC50 (Human mTOR) | IC50 (LNCap) | IC50 (MDA468) | activity in xenograft model [1]
1 | Oc1cccc(-c2nc(C3=CCOCC3)c3cnn(-c4ccccc4)c3n2)c1 [Compound 1, 3-[4-(3,6-dihydro-2H-pyran-4-yl)-1-phenyl-1H-pyrazolo[3,4-d]pyrimidin-6-yl]phenol] | 1.89 µM | 48 nM | 17 nM | 2800 nM | 8.25 µM | –
2 | Oc1cccc(-c2nc(C3CCOCC3)c3cnn(-c4ccccc4)c3n2)c1 [Compound 2, 3-[1-phenyl-4-(tetrahydro-2H-pyran-4-yl)-1H-pyrazolo[3,4-d]pyrimidin-6-yl]phenol] | > 10 µM | 855 nM | 670 nM | 11000 nM | 50 µM | –
3 | CC(=O)Nc1ccc(-c2nc(C3=CCOCC3)c3cnn(C4CCN(Cc5ccccc5)CC4)c3n2)cc1 [Compound 3, N-{4-[1-(1-benzylpiperidin-4-yl)-4-(3,6-dihydro-2H-pyran-4-yl)-1H-pyrazolo[3,4-d]pyrimidin-6-yl]phenyl}acetamide] | 3.02 µM | 3090 nM | 230 nM | 5000 nM | 11 µM | –
4 | CNC(=O)Nc1ccc(-c2nc(C3=CCOCC3)c3cnn(C4CCN(Cc5cccnc5)CC4)c3n2)cc1 [Compound 4, 1-(4-{4-(3,6-dihydro-2H-pyran-4-yl)-1-[1-(pyridin-3-ylmethyl)piperidin-4-yl]-1H-pyrazolo[3,4-d]pyrimidin-6-yl}phenyl)-3-methylurea] | 3.23 µM | 2820 nM | 17 nM | 900 nM | 4.2 µM | –
5 | CNC(=O)Nc1ccc(-c2nc(C3=CCOCC3)c3cnn(C4CCN(C(=O)c5cccnc5)CC4)c3n2)cc1 [Compound 5, 1-(4-{4-(3,6-dihydro-2H-pyran-4-yl)-1-[1-(pyridin-3-ylcarbonyl)piperidin-4-yl]-1H-pyrazolo[3,4-d]pyrimidin-6-yl}phenyl)-3-methylurea] | 1.18 µM | 2100 nM | 8.4 nM | 2800 nM | 4 µM | –
6 | CNC(=O)Nc1ccc(-c2nc(C3=CCOCC3)c3cnn(CC(F)(F)F)c3n2)cc1 [Compound 6, 1-{4-[4-(3,6-dihydro-2H-pyran-4-yl)-1-(2,2,2-trifluoroethyl)-1H-pyrazolo[3,4-d]pyrimidin-6-yl]phenyl}-3-methylurea] | 3.03 µM | 212 nM | 2.4 nM | 260 nM | 0.95 µM | –
7 | O=C(NCCF)Nc1ccc(-c2nc(C3=CCOCC3)c3cnn(CC(F)(F)F)c3n2)cc1 [Compound 7, 1-{4-[4-(3,6-dihydro-2H-pyran-4-yl)-1-(2,2,2-trifluoroethyl)-1H-pyrazolo[3,4-d]pyrimidin-6-yl]phenyl}-3-(2-fluoroethyl)urea] | 1.01 µM | 2330 nM | 1.4 nM | 72 nM | 0.22 µM | –
8 | CO[C@H]1C[C@@H]2CC[C@@H](C)[C@@](O)(O2)C(=O)C(=O)N2CCCC[C@H]2C(=O)O[C@H]([C@H](C)C[C@@H]2CC[C@@H](OC(=O)C(C)(CO)CO)[C@H](OC)C2)CC(=O)[C@H](C)/C=C(\C)[C@@H](O)[C@@H](OC)C(=O)[C@H](C)C[C@H](C)/C=C/C=C/C=C/1C [Torisel] | – | – | – | – | – | active

Second part, led by results:

Row | IC50 (PI3 Kinase γ) | IC50 (PI3 Kinase α) | IC50 (Human mTOR) | IC50 (LNCap) | Structure (SMILES) | IC50 (MDA468) | activity in xenograft model [1]
9 | > 10 µM | 66 nM | 0.75 nM | 380 nM | O=C(Nc1ccc(-c2nc(C3=CCOCC3)c3cnn(CC(F)(F)F)c3n2)cc1)Nc1cccnc1 [Compound 8, 1-{4-[4-(3,6-dihydro-2H-pyran-4-yl)-1-(2,2,2-trifluoroethyl)-1H-pyrazolo[3,4-d]pyrimidin-6-yl]phenyl}-3-pyridin-3-ylurea] | 7 µM | –
10 | 0.074 µM | 43 nM | 2.6 nM | 96 nM | O=C(Nc1ccccc1)Nc1ccc(-c2nc(C3=CCOCC3)c3cnn(CC(F)(F)F)c3n2)cc1 [Compound 9, 1-{4-[4-(3,6-dihydro-2H-pyran-4-yl)-1-(2,2,2-trifluoroethyl)-1H-pyrazolo[3,4-d]pyrimidin-6-yl]phenyl}-3-phenylurea] | 0.23 µM | –
11 | > 10 µM | 851 nM | 2.4 nM | 210 nM | CCNC(=O)Nc1ccc(-c2nc(C3=CCOCC3)c3cnn(CC(F)(F)F)c3n2)cc1 [Compound 10, 1-{4-[4-(3,6-dihydro-2H-pyran-4-yl)-1-(2,2,2-trifluoroethyl)-1H-pyrazolo[3,4-d]pyrimidin-6-yl]phenyl}-3-ethylurea] | 0.68 µM | –
12 | 3.36 µM | 696 nM | 3550 nM | 170 nM | O=C(Nc1ccc(-c2nc(C3=CCOCC3)c3cnn(CC(F)(F)F)c3n2)cc1)OCCO [Compound 10a, 2-hydroxyethyl {4-[4-(3,6-dihydro-2H-pyran-4-yl)-1-(2,2,2-trifluoroethyl)-1H-pyrazolo[3,4-d]pyrimidin-6-yl]phenyl}carbamate] | 1.2 µM | –
13 | 0.414 µM | 169 nM | 280 nM | – | O=c1[nH]c2nc(-c3cccc(O)c3)nc(C3=CCOCC3)c2[nH]1 [Compound 67, 6-(3,6-dihydro-2H-pyran-4-yl)-2-(3-hydroxyphenyl)-7,9-dihydro-8H-purin-8-one] | > 10 µM | –
